Test results as given in patent publication US10738028B2, “Spiro three-membered ring, spiro five-membered ring peptide deformylase inhibitor and use thereof in antibacteria and anti-tumor” (priority 2016, dated 2020).

Experiments:
Format in all cases: cell-based
[1] = tested on: Enterococcus faecium (EFM); assay: MIC, two-fold agar dilution (CLSI), clinical isolates
Summary of the method: (§1)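 Samples are serially diluted two-fold in agar following CLSI guidance. Plates are then inoculated with the tested strains. The lowest inhibiting concentration is recorded as MIC.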

[2] = tested on: methicillin-resistant Staphylococcus epidermidis (MRSE); assay: as above
Summary of the method: as §1

[3] = tested on: Enterococcus faecalis (EFA); assay: as above
Summary of the method: as §1

[4] = tested on: Streptococcus pneoumoniae (SPN); assay: as above
Summary of the method: as §1

[5] = tested on: Moraxella catarrhalis (BCA); assay: as above
Summary of the method: as §1

[6] = tested on: methicillin-sensitive Staphylococcus epidermidis (MSSE); assay: as above
Summary of the method: as §1

[7] = tested on: methicillin-resistant Staphylococcus aureus (MRSA); assay: as above
Summary of the method: as §1

[8] = tested on: methicillin-sensitive Staphylococcus aureus (MSSA); assay: as above
Summary of the method: as §1

[9] = tested on: Escherichia coli (including ESBLs, non-ESBLs); assay: as above
Summary of the method: as §1

[10] = tested on: A549 lung cancer cell line; assay: CCK-8 proliferation inhibition; conditions: concentration of 30 μM
Summary of the method: (§2)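 Plating at 2000 cells/well, then incubation overnight at 37° C. Next, a range of compound concentrations for 72 hours (control 1‰ DMSO). Finally, medium decanted and CCK-8 diluted 1:10 added.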

[11] = tested on: BEL-7402 liver cancer cell line; assay: CCK-8 proliferation inhibition; conditions: concentration of 30 μM
Summary of the method: as §2

[12] = tested on: MGC-803 gastric cancer cell line; assay: CCK-8 proliferation inhibition; conditions: Homo sapiens, MGC-803, 72 h, concentration of 30 μM
Summary of the method: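 Using media specific to each line (1640 for MGC-803 and Jurkat, F12 for PC3, DMEM high glucose for MCF-7, each with 10% newborn bovine serum), cells at 2000/well were treated for 72 h with serially formulated compounds, then assessed with CCK-8 diluted 1:10.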

[13] = tested on: HCT-116 colorectal cancer cell line; assay: CCK-8 proliferation inhibition; conditions: concentration of 30 μM, 72 hours, CCK-8
Summary of the method: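 Proliferation over 72 hours of compound treatment was measured with CCK-8 against a 1‰ DMSO control.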

## CCCC[C@H](CC(=O)NO)C(=O)N1CC2(CC2)C[C@H]1C(=O)Nc1nc(C(F)(F)F)cs1 [Example 57]
[1]; clinical isolate EFM 15-1
  Anti-bacterial activity (MIC), strain EFM 15-1: 1 µg/mL
[1]; clinical isolate EFM 15-2
  Anti-bacterial activity (MIC), strain EFM 15-2: 2 µg/mL
[1]; clinical isolate EFM 15-3
  Anti-bacterial activity (MIC), strain EFM 15-3: 0.25 µg/mL
[1]; clinical isolate EFM 15-4
  Anti-bacterial activity (MIC), strain EFM 15-4: 1 µg/mL
[1]; clinical isolate EFM 15-5
  Anti-bacterial activity (MIC), strain EFM 15-5: 0.5 µg/mL
[1]; clinical isolate EFM 15-6
  Anti-bacterial activity (MIC), strain EFM 15-6: 4 µg/mL
[2]; clinical isolate MRSE 15-1
  Anti-bacterial activity (MIC), strain MRSE 15-1: 0.125 µg/mL
[2]; clinical isolate MRSE 15-2
  Anti-bacterial activity (MIC), strain MRSE 15-2: 0.125 µg/mL
[2]; clinical isolate MRSE 15-3
  Anti-bacterial activity (MIC), strain MRSE 15-3: 0.125 µg/mL
[2]; clinical isolate MRSE 15-7
  Anti-bacterial activity (MIC), strain MRSE 15-7: 0.25 µg/mL
[3]; clinical isolate EFA 15-1
  Anti-bacterial activity (MIC), strain EFA 15-1: 8 µg/mL
[3]; clinical isolate EFA 15-2
  Anti-bacterial activity (MIC), strain EFA 15-2: 8 µg/mL
[3]; clinical isolate EFA 15-3
  Anti-bacterial activity (MIC), strain EFA 15-3: 8 µg/mL
[3]; clinical isolate EFA 15-4
  Anti-bacterial activity (MIC), strain EFA 15-4: 8 µg/mL
[3]; clinical isolate EFA 15-5
  Anti-bacterial activity (MIC), strain EFA 15-5: 8 µg/mL
[3]; clinical isolate EFA 15-6
  Anti-bacterial activity (MIC), strain EFA 15-6: 8 µg/mL
[3]; clinical isolate EFA 15-9
  Anti-bacterial activity (MIC), strain EFA 15-9: 8 µg/mL
[4]; clinical isolate SPN 16-2
  Anti-bacterial activity (MIC), strain SPN 16-2: 2 µg/mL
[4]; clinical isolate SPN 16-4
  Anti-bacterial activity (MIC), strain SPN 16-4: 0.25 µg/mL
[5]; clinical isolate BCA 14-1
  Anti-bacterial activity (MIC), strain BCA 14-1: 0.5 µg/mL
[5]; clinical isolate BCA 14-4
  Anti-bacterial activity (MIC), strain BCA 14-4: 0.5 µg/mL
[5]; clinical isolate BCA 14-5
  Anti-bacterial activity (MIC), strain BCA 14-5: 0.5 µg/mL
[5]; clinical isolate BCA 14-6
  Anti-bacterial activity (MIC), strain BCA 14-6: 1 µg/mL
[5]; clinical isolate BCA 14-7
  Anti-bacterial activity (MIC), strain BCA 14-7: 0.25 µg/mL
[5]; clinical isolate BCA 14-8
  Anti-bacterial activity (MIC), strain BCA 14-8: 0.25 µg/mL
[5]; clinical isolate BCA 14-10
  Anti-bacterial activity (MIC), strain BCA 14-10: 0.25 µg/mL
[6]; clinical isolate MSSE 15-3
  Anti-bacterial activity (MIC), strain MSSE 15-3: 0.25 µg/mL
[6]; clinical isolate MSSE 15-4
  Anti-bacterial activity (MIC), strain MSSE 15-4: 0.125 µg/mL
[6]; clinical isolate MSSE 15-5
  Anti-bacterial activity (MIC), strain MSSE 15-5: 0.125 µg/mL
[6]; clinical isolate MSSE 15-6
  Anti-bacterial activity (MIC), strain MSSE 15-6: 0.06 µg/mL
[7]; clinical isolate MRSA 15-1
  Anti-bacterial activity (MIC), strain MRSA 15-1: 0.5 µg/mL
[7]; clinical isolate MRSA 15-2
  Anti-bacterial activity (MIC), strain MRSA 15-2: 0.5 µg/mL
[7]; clinical isolate MRSA 15-3
  Anti-bacterial activity (MIC), strain MRSA 15-3: 0.5 µg/mL
[7]; clinical isolate MRSA 15-4
  Anti-bacterial activity (MIC), strain MRSA 15-4: 0.5 µg/mL
[8]; clinical isolate MSSA 15-3
  Anti-bacterial activity (MIC), strain MSSA 15-3: 0.5 µg/mL
[8]; clinical isolate MSSA 15-4
  Anti-bacterial activity (MIC), strain MSSA 15-4: 0.125 µg/mL
[8]; clinical isolate MSSA 15-5
  Anti-bacterial activity (MIC), strain MSSA 15-5: 0.125 µg/mL
[8]; clinical isolate MSSA 15-6
  Anti-bacterial activity (MIC), strain MSSA 15-6: 0.125 µg/mL
[9]; clinical isolate ECO+ 15-1
  Anti-bacterial activity (MIC), strain ECO+ 15-1: 32 µg/mL
[9]; clinical isolate ECO+ 15-2
  Anti-bacterial activity (MIC), strain ECO+ 15-2: > 32 µg/mL
[9]; clinical isolate ECO+ 15-3
  Anti-bacterial activity (MIC), strain ECO+ 15-3: > 32 µg/mL
[9]; clinical isolate ECO+ 15-4
  Anti-bacterial activity (MIC), strain ECO+ 15-4: > 32 µg/mL
[9]; clinical isolate ECO− 15-1
  Anti-bacterial activity (MIC), strain ECO− 15-1: > 32 µg/mL
[9]; clinical isolate ECO− 15-2
  Anti-bacterial activity (MIC), strain ECO− 15-2: > 32 µg/mL
[9]; clinical isolate ECO− 15-3
  Anti-bacterial activity (MIC), strain ECO− 15-3: > 32 µg/mL
[9]; clinical isolate ECO− 15-4
  Anti-bacterial activity (MIC), strain ECO− 15-4: > 32 µg/mL
[10]; Homo sapiens, A549, 72 h
  inhibition at 30 µM: > 50%
[10]; 72 hours, 30 µM
  Inhibition of proliferation, Lung cancer A549: 52%
[11]; Homo sapiens, Bel-7402, 72 h
  inhibition at 30 µM: > 50%
[11]; 72 hours, 30 µM
  Inhibition of proliferation, Liver cancer BEL-7402: 57%
[12]
  inhibition at 30 µM: 34%
[13]; Homo sapiens, HCT-116, 72 h, read-out: HCT116 inhibition rate/%
  inhibition at 30 µM: > 50%
[13]; 30 µM
  HCT116 inhibition rate/%: 52%
